Source: patent US20170290915A1, “METHODS FOR DELIVERING AN ANTI-CANCER AGENT TO A TUMOR” (priority 2010, published 2017)
Where “and” joins values, the source holds several entries; their conditions need not be identical. Equal values may be shown once.

Tests used:
[1] = Evans blue dye (EBD) delivery to tumor, thermal enhancement ratio (TER); type: in vivo, mice
Method: Mouse sarcoma S-180 cells were propagated by intraperitoneal injection (5×10^6 S-180 cells in 1 ml phosphate buffered saline (PBS)) in female CD-1 mice (4-6 weeks old) and allowed to grow until 15% weight gain was observed. Animals were then euthanized by CO2 gas inhalation and the cells were harvested from the abdominal cavity. The cells were then washed to remove blood, diluted and subcutaneously injected into each flank of the animal (2×10^6 cells/flank in 200 μl PBS) while anesthetized with isofluorane. Tumors were then allowed to grow until average tumor volume reached 50-100 mm^3 (usually 7-10 days).
The animals were separated randomly into groups. Half received 200 μl of GNRs (9.6 mg/kg, OD=120) and the other half saline by intravenous injection through the tail vein. After 24 hours, enough time for the GNRs to accumulate in the tumor at 1.22% injected dosed based on previous experiments and other reports in the literature (Dickerson et al., 2008), the animals were anesthetized and the areas around the tumors were shaved and swabbed with 50% propylene glycol to enhance laser penetration depth. After 20 minutes EBD (10 mg/kg in 200 μl saline) was injected intravenously and a 33 gauge needle thermocouple (Omega #HYPO-33-1-T-G-60-SMPW-M) was inserted into the center of the tumor to monitor tumor temperatures. After roughly 10 seconds that temperature data was collected, an 808 nm fiber coupled laser diode (Oclaro #BMU6-808-02-R01) with collimating lens (Thorlabs #F810SMA-780, spot size=7 mm) was directed over the right tumor and radiated. Two different laser powers were used in this study (1.6 and 1.2 W/cm^2) such that one group received severe and the other moderate tumor hyperthermia. After 10 minutes of radiation, the laser was turned off and tumors were allowed to cool for two minutes before removal of the temperature probe.
After the animals were allowed to rest for 5 hours, enough time for the EBD to be cleared from the blood, the animals were sacrificed by CO2 inhalation. Both tumors were collected, weighed and the EBD was extracted in 1.5 ml of formamide for 48 hrs at 60° C. The EBD content was then measured spectrophotometrically at 620 nm and divided by the weight of the tumor. The extravasation of EBD was then calculated as a ratio of the right (treated) to left (untreated) tumor and expressed as a thermal enhancement ratio (TER).

αvβ3 integrins = target: T1, αvβ3 integrins (Homo sapiens, UniProt P05106+P06756); experiment: Competitive inhibition of RGDfK-GNR binding with echistatin; type: cell-based; conditions: echistatin 50 nM co-incubation; HUVECs; 4° C. for 2 hours; binding buffer
T1 construct: endogenous in cells; host or cells: HUVEC
Method: Confirmation of RGDfK-GNR specificity to αvβ3 integrins was performed by competitive inhibition of binding with echistatin. In brief, HUVEC cells were grown to 50% confluency on fibronectin coated cover slips. The media was then removed and replaced with cold binding buffer (20 mmol/L Tris, pH 7.4, 150 mmol/L NaCl, 2 mmol/L CaCl2, 1 mmol/L MgCl2, 1 mmol/L MnCl2, 0.1% bovine serum albumin) containing RGDfK-GNRs (10 μg/ml) and HUVECs were co-incubated at 4° C. for 2 hours with or without 50 nM echistatin (Sigma-Aldrich). Cells were then washed three times with cold binding buffer, mounted to a slide and imaged by high-resolution dark field microscopy.

Compound | TER (EBD in treated/untreated tumor) ([1]; Laser alone (no GNRs), 1.2 W/cm^2) | TER (EBD in treated/untreated tumor) ([1]; Laser alone (no GNRs), 1.6 W/cm^2) | TER (EBD in treated/untreated tumor) ([1]; PPTT (GNRs + laser), 1.2 W/cm^2) | TER (EBD in treated/untreated tumor) ([1]; PPTT (GNRs + laser), 1.6 W/cm^2, EBD 10 mg/kg i.v., 5 hours) | TER ([1]; laser treatment without the presence of GNRs (power not specified)) | Inhibition of RGDfK-GNR binding to the cell's surface (αvβ3 integrins)
Cc1cc(-c2ccc(/N=N/c3ccc4c(S(=O)(=O)[O-])cc(S(=O)(=O)[O-])c(N)c4c3O)c(C)c2)ccc1/N=N/c1ccc2c(S(=O)(=O)[O-])cc(S(=O)(=O)[O-])c(N)c2c1O.[Na+].[Na+].[Na+].[Na+] [EBD, Evans blue dye] | 0.94 ± 0.25 | 1.05 ± 0.15 | 1.68 and 1.68 ± 0.65 | 1.82 and 1.82 ± 0.40 | around 1.0 | 
echistatin |  |  |  |  |  | almost complete inhibition
